Source: ChEMBL document CHEMBL1201862, “PubChem BioAssay data set” (2004)
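Cultured in 96-well plates, cells were exposed to test compound for 48 hours across five concentrations. GI50 marks 50% less growth.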 Calls of active or inactive are those of the source. No stated cut-off is given here; in the data, active = GI50 up to about 1.1 µM and inactive = higher.

Assays:
Assay in all cases: NCI anticancer screen, dose series, 48 h
SK-MEL-5 = test system: SK-MEL-5
786-0 = test system: 786-0
NCI/ADR-RES = test system: NCI/ADR-RES
SNB-19 = test system: SNB-19
U-251 = test system: U-251
RXF 393 = test system: RXF 393
PC-3 = test system: PC-3
COLO 205 = test system: COLO 205
CCRF-CEM = test system: CCRF-CEM
HOP-92 = test system: HOP-92
SK-OV-3 = test system: SK-OV-3
HCT-116 = test system: HCT-116
SK-MEL-2 = test system: SK-MEL-2
T47D = test system: T47D
MOLT-4 = test system: MOLT-4
MDA-MB-231 = test system: MDA-MB-231
UACC-62 = test system: UACC-62
NCI-H23 = test system: NCI-H23
K562 = test system: K562
MCF7 = test system: MCF7
HL-60 = test system: HL-60
UACC-257 = test system: UACC-257
IGROV-1 = test system: IGROV-1
OVCAR-8 = test system: OVCAR-8
OVCAR-3 = test system: OVCAR-3
M14 = test system: M14
DU-145 = test system: DU-145
KM12 = test system: KM12
NCI-H460 = test system: NCI-H460
EKVX = test system: EKVX
Malme-3M = test system: Malme-3M
HCC 2998 = test system: HCC 2998
SK-MEL-28 = test system: SK-MEL-28
HT-29 = test system: HT-29
HCT-15 = test system: HCT-15
SF-295 = test system: SF-295
SW-620 = test system: SW-620
CAKI-1 = test system: CAKI-1
SNB-75 = test system: SNB-75
TK-10 = test system: TK-10
SR = test system: SR
A549 = test system: A549
HOP-62 = test system: HOP-62
SF-268 = test system: SF-268
RPMI-8226 = test system: RPMI-8226
MDA-N = test system: MDA-N
SN12C = test system: SN12C
LOX IMVI = test system: LOX IMVI

Compound | GI50 (SK-MEL-5) | GI50 (786-0) | GI50 (RXF 393) | GI50 (PC-3) | GI50 (CCRF-CEM) | GI50 (SK-OV-3) | GI50 (T47D) | GI50 (MOLT-4) | GI50 (MDA-MB-231) | GI50 (UACC-62) | GI50 (NCI-H23) | GI50 (K562) | GI50 (MCF7) | GI50 (HL-60) | GI50 (UACC-257) | GI50 (IGROV-1) | GI50 (OVCAR-8) | GI50 (M14) | GI50 (DU-145) | GI50 (KM12) | other results
CCC(CCCC[C@@H]1CC[C@H]2CC(=O)C[C@@H]12)OC (stereo not given in full) | 73.5 µM (inactive) | > 100 µM (inactive) | > 100 µM (inactive) | > 100 µM (inactive) | > 100 µM (inactive) | > 100 µM (inactive) | > 100 µM (inactive) | > 100 µM (inactive) | > 100 µM (inactive) | > 100 µM (inactive) | 91.6 µM (inactive) | 36.7 µM (inactive) | > 100 µM (inactive) | 49.5 µM (inactive) | 56.6 µM (inactive) | > 100 µM (inactive) | > 100 µM (inactive) | > 100 µM (inactive) | > 100 µM (inactive) | > 100 µM (inactive) | GI50 (NCI/ADR-RES): 76.6 µM (inactive); GI50 (SNB-19): > 100 µM (inactive); GI50 (U-251): > 100 µM (inactive); GI50 (COLO 205): > 100 µM (inactive); GI50 (HOP-92): > 100 µM (inactive); GI50 (HCT-116): > 100 µM (inactive); GI50 (SK-MEL-2): > 100 µM (inactive); GI50 (OVCAR-3): > 100 µM (inactive); GI50 (NCI-H460): > 100 µM (inactive); GI50 (EKVX): > 100 µM (inactive)
CC(C)(Oc1ccc2c(=O)cc(-c3ccccc3)oc2c1)C(=O)N1CCN(c2ccccc2)CC1 | 4.54 µM (inactive) | 5.89 µM (inactive) | 1.47 µM (inactive) | 3.05 µM (inactive) | 3.15 µM (inactive) | > 10 µM (inactive) | 3.2 µM (inactive) | 2.6 µM (inactive) | 6.46 µM (inactive) | 3.71 µM (inactive) | 3.24 µM (inactive) | 3.17 µM (inactive) | 3.23 µM (inactive) | 1.62 µM (inactive) | 3.56 µM (inactive) | > 10 µM (inactive) | 5.57 µM (inactive) | 3.64 µM (inactive) | 6.12 µM (inactive) | 3.42 µM (inactive) | GI50 (Malme-3M): 4.84 µM (inactive); GI50 (HCC 2998): 5.94 µM (inactive); GI50 (SK-MEL-28): 6.81 µM (inactive); GI50 (HT-29): 4.08 µM (inactive); GI50 (HCT-15): 4.55 µM; GI50 (SF-295): 4.71 µM (inactive); GI50 (SW-620): 6.64 µM (inactive); GI50 (CAKI-1): 3.7 µM (inactive); GI50 (SNB-75): 4.76 µM (inactive); GI50 (TK-10): 8.17 µM (inactive); GI50 (SR): 2.49 µM (inactive); GI50 (A549): 4.95 µM (inactive); GI50 (HOP-62): 5.55 µM (inactive); GI50 (SF-268): 4.16 µM (inactive); GI50 (RPMI-8226): 2.52 µM (inactive); GI50 (MDA-N): 3.41 µM (inactive); GI50 (SN12C): 5.74 µM (inactive); GI50 (EKVX): 5.28 µM (inactive); GI50 (LOX IMVI): 5.5 µM (inactive)
CC(=O)OCC(=O)[C@@]1(O)CC[C@H]2[C@@H]3CCC4=CC(=O)C=C[C@]4(C)[C@@]3(F)[C@@H](O)C[C@@]21C [ISOFLUPREDONE ACETATE] |  |  |  | 65.3 µM (inactive) |  |  |  |  |  |  |  |  |  |  |  |  |  |  |  |  | 
